We go through 2 compounds from US7655778B2, “SISP-1, a novel p53 target gene and use thereof” (priority 2006, dated 2010).

Assay [1] has as its system IMR90 normal diploid fibroblasts. Briefly: Northern blot of SISP-1 mRNA induction by genotoxic drugs. The assay is classed as cell-based. To be noted: IMR90 cells; etoposide 50 μM or CPT 600 nM, 24-48 hours; FIG. 4A.
Procedure: IMR90 normal diploid fibroblasts (Obtained from ATCC) were cultured in Dulbecco's modified Eagle's medium (DMEM, Invitrogen)) containing 10% fetal bovine serum (FBS, Hyclone), 100 units/ml of penicillin, and 100 μg/ml of streptomycin at 37° C. […] Then, total RNA was extracted, denatured, electrophoresed through a 1% agarose-formaldehyde gel and transferred to a nylon membrane. Hybridization was performed with ^32P-labeled probes, SISP1, p21 or 36B4 (a loading control) prepared by the randomly primed DNA labeling method.
For assay [2], the system named is U2OS osteosarcoma cells. Briefly: Etoposide-induced cell death with inducible SISP-1 (FIG. 10). The assay is classed as cell-based. Particulars: over 48 hours. From the text:
(§1) The present inventor further examined whether SISP-1 could also sensitize U2OS cells that is known to be quite resistant to chemo-drugs.
(§2) The inventor re-evaluated this effect in a rapidly growing human bladder carcinoma cell line, EJ, since SISP-1 may be used a strong candidate as a new sensitizing molecule that improves the therapeutic efficacy and minimizes the toxicity of chemo-drugs. To further confirm the sensitizing effects of SISP-1 expression in a combination of chemo-drugs, we generated tumor cells containing the tetracycline-regulated inducible expression of SISP-1 using U2OS and EJ lines.

For assay [3], the system named is U2OS osteosarcoma cells. Briefly: Cell-Death Elisa, tetracycline-inducible SISP-1 plus etoposide. The assay is classed as cell-based. To be noted: SISP-1 or etoposide (15 μM) alone, FIG. 9A. The method, then:
U2OS-tet-on-SISP-1 cells were generated by isolating tetracycline regulated stable-clones expressing SISP-1 upon tetracycline addition (doxycycline, Sigma). U2OS-SISP-1 cells were cultured in the presence or absence of doxycycline (1 μg/ml) for 24 hours.

The subject of assay [4] is EJ bladder carcinoma cells. As to the kind of experiment: Etoposide-induced cell death with inducible SISP-1 (FIG. 10). To be noted: over 48 hours. The assay is classed as cell-based, human.
Text: as §1, §2

The subject of assay [5] is HCT116 colon carcinoma cells. Briefly: Cell death Elisa (DNA fragmentation) after adenoviral SISP-1 infection. To be noted: etoposide 30 μM, 24 hours, 12 hour post infection. The assay is classed as cell-based, human. The method, then:
(§3) Next, the inventor investigated the apoptotic effects of SISP-1 expression in human colon cancer cells and breast carcinoma cells by using adenovirus expressing SISP-1. […] Adenoviruses expressing HA-tagged SISP-1 (Ad-SISP-1) or GFP (Ad-GFP as a control) were generated, amplified and titrated. HCT 116 colon carcinoma cells and MDAMB435 breast cancer cells were grown to 50-70% confluency and infected with recombinant adenovirus at multiplicity of infection (MOI) of 15-30. […] Then, cell death rate was measured by DNA fragmentation assay (Cell death Elisa kit, Roche).

Assay [6] concerns MDAMB435 breast cancer cells. The description is as above. The assay is classed as cell-based, human. Particulars: etoposide 30 μM, 24 hours, 12 hour post infection. The method, then:
as §3

As to `CC[C@@]1(O)C(=O)OCc2c1cc1n(c2=O)Cc2cc3ccccc3nc2-1` [CPT, camptothecin], the “expression of SISP-1 mRNA” value in assay [1] is given as “induced”.

In the case of `COc1cc([C@@H]2c3cc4c(cc3[C@@H](O[C@@H]3O[C@@H]5CO[C@@H](C)O[C@H]5[C@H](O)[C@H]3O)[C@H]3COC(=O)[C@H]23)OCO4)cc(OC)c1O` [etoposide, reference compound], the “cell death by etoposide itself” value (in the assay with U2OS osteosarcoma cells [2]; in assay [4]) was “induced a limited cell death” in each case. In the assay on U2OS osteosarcoma cells [3], the “cell death by single treatment” value is listed as “did not induce cell death”. Further, the “sensitization of SISP-1 overexpressing cells by etoposide” value in assay [5] and in assay [6] was “selectively sensitized” each time.
